The text below walks through data of patent publication US7776312B2, “Method of treating Alzheimer's disease comprising administering deferoxamine (DFO) to the upper one-third of the nasal cavity” (HealthPartners Research Foundation, priority 2004, dated 2010).

Structures are written as SMILES. Read-outs that look alike come from different tables or passages of the source.

For series [1] the following is noted: humans, intravenous; cited from earlier work.
For series [2], the system named is middle cerebral artery occlusion (MCAO). The series can be described thus: Post-stroke intranasal DFO at start of reperfusion after MCAO, infarct volume. Format: in vivo, rats. As for the experimental part: In this regard, let us now turn to FIG. 4. Here, the experimental method is as follows: The method is the same as described above in connection with FIG. 1, except that the subjects are not pretreated. […] Six doses of 10% DFO (6 mg DFO/dose) were administered in this manner; three doses of 10% DFO at 2-hour intervals on the day of surgery and the remaining three doses of 10% DFO at three-hour intervals on the day following surgery (40).

Series [3] deals with hypoxia-inducible factor-1α (HIF-1α). The series can be described thus: Western blot of brain proteins for HIF-1α after intranasal DFO. Type of series: in vivo. Particulars: rats, Western blot quantitation. From the text:
Intranasal DFO reduced infarct volumes by 60% when expressed as either total infarct, cortical infarct, or striatal infarct volume. Brain proteins from olfactory bulb and from striatum were subjected to Western blot analysis for hypoxia-inducible factor-1α (HIF-1α). See FIG. 1 for a bar graph illustrating the results (10) for control animals (C) and pretreated animals (P). The results are shown broken into the cortex (12), striatum (14) and overall total (16) infarct volumes for control/pretreated animals. […] Here, the control animals' (C) total infarct volume is 175.93 mm^3 (18), while the pretreated animals' (P) total infarct volume is 70.57 mm^3 (20). Thus, a reduction of 60% in infarct volume is realized by way of this pretreatment regimen.
Additional brain samples from animals treated with intranasal DFO were generated, total RNA was isolated from olfactory bulb and striatum, and cDNA was generated using primers specific for HIF-1α.
A general note: Immunoblotting shows a protein as a band on a membrane.

Series [4] can be described thus: Intranasal delivery of DFO (59Fe-labeled ferrioxamine), tissue concentrations by scintillation counting. To be noted: rat, 6 mg, intranasal ~6 mg, 25 min. after onset of delivery. Type of series: in vivo, rats. From the text: Following delivery, tissues were removed for analysis.
The conditions of series [5]: cited from earlier work.
For series [6], the system named is middle cerebral artery occlusion (MCAO). The series can be described thus: Intranasal DFO pretreatment, infarct volume and brain swelling 24 hours after MCAO. Type of series: in vivo, rats. Particulars: 3 doses of 60 μl 10% intranasal DFO 48 hours before MCAO. As for the experimental part: Further, another experiment was conducted to further discover the mechanisms that may be manipulated in order to achieve the desired therapeutic results. Thus, rats were treated with 3 doses of 60 μl 10% intranasal deferoxamine (DFO), or water, at 3 hours intervals. The two groups of rats were either sacrificed or subjected to a 2-hour Middle Cerebral Artery Occlusion (MCAO) 48 hours later. Those rats undergoing the MCAO were sacrificed 24 hours after the MCAO.
In addition to the bioarray and PCR results, total infarct volume, cortical infarct volume and brain swelling were assessed for the rats pretreated with intranasal DFO with stroke and untreated rats with stroke 24 hours after MCAO.

For series [7] the test system is unchanged. In words: Pre-stroke intranasal DFO, 2-hour middle cerebral artery occlusion (MCAO), infarct volume by TTC staining. To be noted: for total infarct volume: rats. Type of series: in vivo, rats.
The mark [8] stands for this setting: one dose of 10% DFO intranasal pre-stroke, 5 days after MCAO.
The mark [9] stands for this setting: three doses of 3% DFO intranasal pre-stroke.
The mark [10] stands for this setting: three doses of 10% DFO intranasal pre-stroke, 5 days after MCAO.

Consider `CC(=O)N(O)CCCCCNC(=O)CCC(=O)N(O)CCCCCNC(=O)CCC(=O)N(O)CCCCCN` [DFO, deferoxamine], for which the plasma half-life result in series [1] is given as “less than 10 minutes”. In addition, the total infarct volume worked out at 116 mm^3 in series [2] (rats, six doses of 10% DFO (6 mg/dose) intranasal post-stroke from start of reperfusion); 86.72 mm^3 in series [7] (setting [8]); 101.83 mm^3 in series [7] (setting [9]); 70.57 mm^3 in series [7] (three doses of 10% DFO (6 mg each) intranasal 48 hours before 2-hour MCAO, 5 days after MCAO). Moreover, the “reduction of total infarct volume” value in series [2] (six doses of 10% DFO intranasal post-stroke) is 55%; in series [7] (setting [9]), 35%; in series [7] (three doses of 10% DFO intranasal pre-stroke, 5 days after MCAO, vs distilled water controls), 60%. In series [3], the “elevation of HIF-1α protein in olfactory bulb” value is on record as “approximately 30 fold”. Moreover, the “elevation of HIF-1α protein in striatum” value in series [3] is recorded as ~20 fold. The concentration at 25 min in series [4] (olfactory epithelium, read-out: DFO concentration, Olfactory Epithelium) was 12000 µM; in series [4] (septal nucleus, read-out: DFO concentration, Septal Nucleus), 2.6 µM; in series [4] (thalamus, read-out: DFO concentration, Thalamus), 1.1 µM. Also, the “effect of intravenous bolus injection” value in series [5] is listed as “causes acute hypotension”. Moreover, the “decrease in brain swelling” value in series [6] was 71%. For the same compound, the “decrease in cortical infarct volume” value in series [6] was 72%. In addition, in series [6] (rats), the “decrease in total infarct volume” value was 56%. The “overall infarct volume reduction” value in series [7] (setting [8]) is reported as 26%. The “reduction of cortical infarct volume” value in series [7] (setting [10]) is listed as 60%. For the same compound, the “reduction of striatal infarct volume” value in series [7] (setting [10]) stood at 60%.
